Measured values: patent US20230277630A1, “METHODS AND COMPOSITIONS FOR TREATING AMYOTROPHIC LATERAL SCLEROSIS” (Amylyx Pharmaceuticals, Inc., priority 2022, published 2023)

What was measured:
[1] = Chemical stability in HBSSg_7.4 and HBSS_8.5; format: physicochemical
Description: The test article was prepared in DMSO stock (0.5 mM), and aliquots of the DMSO stock were added to each matrix. The nominal concentration of each component was 0.5 μM in each matrix. […] At pre-determined time points, an equal volume of acetonitrile with internal standard was added to each vial, and the mixture was placed at 4° C. until the end of the assay. The peak areas of the test article and IS of each sample were determined by LC-MS/MS, and the ratios of the peak areas (analyte: IS) were calculated.

[2] = biological target: T1, human liver microsomes (HLM) (Homo sapiens, UniProt P20813); experiment: CYP reaction phenotyping using HLM and chemical inhibitors (% remaining); format: in vitro ADME; conditions: human, microsomes, 5 μM, pH 7.4
T1 construct: from tissue; host or cells: pooled human liver microsomes
T1 sequence (P20813 1-491): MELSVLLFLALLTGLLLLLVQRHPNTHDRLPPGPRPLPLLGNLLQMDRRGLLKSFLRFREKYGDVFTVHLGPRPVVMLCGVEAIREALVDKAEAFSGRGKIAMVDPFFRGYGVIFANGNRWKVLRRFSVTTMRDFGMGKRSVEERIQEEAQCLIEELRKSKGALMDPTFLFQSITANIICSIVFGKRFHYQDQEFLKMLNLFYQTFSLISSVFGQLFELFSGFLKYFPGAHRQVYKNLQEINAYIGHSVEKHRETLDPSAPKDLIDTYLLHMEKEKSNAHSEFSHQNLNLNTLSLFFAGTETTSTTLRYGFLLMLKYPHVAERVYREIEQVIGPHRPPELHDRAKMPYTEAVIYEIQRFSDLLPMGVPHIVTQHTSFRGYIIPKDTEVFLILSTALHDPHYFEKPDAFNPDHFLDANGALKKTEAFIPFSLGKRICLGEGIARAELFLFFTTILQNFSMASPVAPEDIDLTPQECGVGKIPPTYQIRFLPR
Source text: (§1) % Remaining of TA=100×At/A0
(§2) Where, At and A0 are the peak area ratio of TA to IS at time t and at time zero, respectively.

[3] = biological target: T2, human liver microsomes (HLM) (Homo sapiens, UniProt P10632); experiment: as above; format: in vitro ADME; conditions: human, microsomes, 5 μM, pH 7.4
T2 construct: from tissue; host or cells: pooled human liver microsomes
T2 sequence (P10632 1-490): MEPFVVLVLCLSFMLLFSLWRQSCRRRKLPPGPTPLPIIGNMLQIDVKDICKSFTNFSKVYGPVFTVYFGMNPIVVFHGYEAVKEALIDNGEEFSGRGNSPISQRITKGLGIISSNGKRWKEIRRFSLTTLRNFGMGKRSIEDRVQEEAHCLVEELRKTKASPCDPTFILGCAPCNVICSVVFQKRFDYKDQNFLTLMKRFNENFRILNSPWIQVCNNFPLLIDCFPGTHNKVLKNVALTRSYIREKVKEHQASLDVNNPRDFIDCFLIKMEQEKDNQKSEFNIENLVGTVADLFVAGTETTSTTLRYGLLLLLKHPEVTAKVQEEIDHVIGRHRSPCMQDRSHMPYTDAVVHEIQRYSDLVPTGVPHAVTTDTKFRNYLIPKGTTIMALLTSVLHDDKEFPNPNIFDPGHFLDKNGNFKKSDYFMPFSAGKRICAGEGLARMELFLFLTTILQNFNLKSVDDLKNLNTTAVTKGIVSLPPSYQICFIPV
Source text: as §1, §2

O=C(O)CCCc1ccccc1 [PB, sodium phenylbutyrate]
Percent of the 0-minute value ([1]; HBSSg_7.4, Overnight (1020-[…])): 105%
Percent of the 0-minute value ([1]; HBSSg_7.4, sampling time 0 minutes): 100%
Percent of the 0-minute value ([1]; HBSSg_7.4, sampling time 120 minutes): 99.3%
chemical stability in the tested matrices ([1]; HBSSg_7.4 and HBSS_8.5, 37° C., 0.5 μM): appeared to be stable
Percent of the 0-minute value ([1]; HBSSg_8.5, Overnight (1020-[…])): 98.6%
Percent of the 0-minute value ([1]; HBSSg_8.5, sampling time 0 minutes): 100%
Percent of the 0-minute value ([1]; HBSSg_8.5, sampling time 120 minutes): 79.4%

C[C@H](CCC(=O)NCCS(=O)(=O)O)[C@H]1CC[C@H]2[C@@H]3[C@@H](O)C[C@@H]4C[C@H](O)CC[C@]4(C)[C@H]3CC[C@]12C [TUDCA, tauroursodeoxycholic acid]
% Remaining of TA (n = 3) Average ([2]; 0 h): 100%
% Remaining of TA (n = 3) Average ([2]; 5 min): 112%
% Remaining of TA (n = 3) Average ([2]; 10 min): 112%
% Remaining of TA (n = 3) Average ([2]; 20 min): 122%
% Remaining of TA (n = 3) Average ([2]; 0.5 h): 116%
% Remaining of TA (n = 3) Average ([2]; 1 h): 102%
% Remaining of TA (n = 3) Average ([3]; 0 h): 100%
% Remaining of TA (n = 3) Average ([3]; 5 min): 101%
% Remaining of TA (n = 3) Average ([3]; 10 min): 103%
% Remaining of TA (n = 3) Average ([3]; 20 min): 95.5%
% Remaining of TA (n = 3) Average ([3]; 0.5 h): 105%
% Remaining of TA (n = 3) Average ([3]; 1 h): 97.7%
